From patent publication US20080124285A1, “Merocyanine Derivatives for Cosmetic Use” (priority 2003, published 2008)

Experiment: UV absorption maximum (λmax) in solvent
Format: physicochemical
Details: for λmax: preparation example
[1] = in EtOH, Table MC1a (intermediates, UV-B absorbers)

Structure (SMILES) | λmax [nm] (in EtOH, Table MC1) | other results
CCCCC(CC)COC(=O)/C(C#N)=C1/C=C(NCCNC2=C/C(=C(\C#N)C(=O)OCC(CC)CCCC)CC(C)(C)C2)CC(C)(C)C1 (centres unmarked) [MC01] | 366,398(EtOH) nm | 
CC1(C)CC(=O)C=C(NCCNC2=CC(=O)CC(C)(C)C2)C1 [MC01a] |  | λmax [nm] [1]: 296 (EtOH) nm
CCOC(=O)/C(C#N)=C1\C=C(NCCNC2=C/C(=C(/C#N)C(=O)OCC)CC(C)(C)C2)CC(C)(C)C1 [MC02] | 366,398(EtOH) nm | λmax (acetonitril): 389 nm
CCOC(=O)C(C(=O)OCC)=C1C=C(NCCNC2=CC(=C(C(=O)OCC)C(=O)OCC)CC(C)(C)C2)CC(C)(C)C1 [MC03] | 383(EtOH) nm | 
CC1(C)CC(=O)C=C(N2CCN(C3=CC(=O)CC(C)(C)C3)CC2)C1 [MC06a] |  | λmax [nm] [1]: 309 (EtOH) nm
CCOC(=O)/C(C#N)=C1\C=C(N2CCN(C3=C/C(=C(/C#N)C(=O)OCC)CC(C)(C)C3)CC2)CC(C)(C)C1 [MC07] | 406(EtOH) nm | λmax (ethanol): 406 nm
CCOC(=O)C(C(=O)OCC)=C1C=C(N2CCN(C3=CC(=C(C(=O)OCC)C(=O)OCC)CC(C)(C)C3)CC2)CC(C)(C)C1 [MC08] | 373(EtOH) nm | 
CC1(C)CC(=O)C=C(NC2CCCCC2NC2=CC(=O)CC(C)(C)C2)C1 (centres unmarked) [MC08a] |  | λmax [nm] (in Acetonitril, Table MC1a (intermediates, UV-B absorbers)): 295(Acetonitril) nm
CCOC(=O)C(C(=O)OCC)=C1C=C(NC2CCCCC2NC2=CC(=C(C(=O)OCC)C(=O)OCC)CC(C)(C)C2)CC(C)(C)C1 (centres unmarked) [MC10] | 384(EtOH) nm | λmax (ethanol): 373 nm
CCOC(=O)/C(C#N)=C1\C=C(NCCCCCCNC2=C/C(=C(/C#N)C(=O)OCC)CCC2)CCC1 [MC18] | 388(EtOH) nm | 
CCOC(=O)C(C(=O)OCC)=C1C=C(NCCCCCCNC2=CC(=C(C(=O)OCC)C(=O)OCC)CCC2)CCC1 [MC19] | 370(EtOH) nm | 
CCOC(=O)/C(C#N)=C1\C=C(NC2CC(C)(C)CC(C)(CNC3=C/C(=C(\C#N)C(=O)OCC)CC(C)(C)C3)C2)CC(C)(C)C1 (centres unmarked) [MC24] | 391(EtOH) nm | 
CCOC(=O)C(C(=O)OCC)=C1C=C(NCC2(C)CC(NC3=CC(=C(C(=O)OCC)C(=O)OCC)CC(C)(C)C3)CC(C)(C)C2)CC(C)(C)C1 (centres unmarked) [MC25] | 378(EtOH) nm | 
CC1(C)CC(NC2CCCCC2NC2=CC(=C(C#N)C#N)CC(C)(C)C2)=CC(=C(C#N)C#N)C1 (centres unmarked) [MC34] | 357/388(EtOH) | 
COC(=O)C(C(=O)OC)=C1C=C(NC2CCCCC2NC2=CC(=C(C(=O)OC)C(=O)OC)CCC2)CCC1 (centres unmarked) [MC35] | 389(EtOH) nm | 
CCCCC(CC)COC(=O)/C(C#N)=C1/C=C(NC2CCCCC2NC2=C/C(=C(\C#N)C(=O)OCC(CC)CCCC)CCC2)CCC1 (centres unmarked) [MC36] | 401(EtOH) nm | 
CC1(C)CC(NCC2(C)CC(NC3=CC(=C(C#N)C#N)CC(C)(C)C3)CC(C)(C)C2)=CC(=C(C#N)C#N)C1 (centres unmarked) [MC37] |  | λmax [nm] (in Acetonitrile, Table MC1): 383(Aceto-nitrile) nm
